Assay [1] has as its system Mus musculus. The assay is described as follows: Antihyperlipidemic activity in Triton WR-1339-induced hyperlipidemic mouse model assessed as decrease in total cholesterol level at 13 mg/kg, po for 7 days and co-treated with Triton WR-1339 on day 6. The format is functional, organism-based.
The subject of assay [2] is Mus musculus. The assay is described as follows: Antihyperlipidemic activity in Triton WR-1339-induced hyperlipidemic mouse model assessed as decrease in serum MDA level at 13 mg/kg, po for 7 days and co-treated with Triton WR-1339 on day 6. In kind it is functional, organism-based.
Assay [3] deals with Mus musculus. Briefly: Antihyperlipidemic activity in Triton WR-1339-induced hyperlipidemic mouse model assessed as decrease in serum triglyceride level at 13 mg/kg, po for 7 days and co-treated with Triton WR-1339 on day 6. The format is functional, organism-based.
The subject of assay [4] is Mus musculus. The assay is described as follows: Antihyperlipidemic activity in high fat diet-induced hyperlipidemic mouse model assessed as increase in HDL level at 13 mg/kg, po administered for last 30 days during 60 days of high fat diet feeding relative to control. The format is functional.
In assay [5] the test system is Mus musculus. The assay is described as follows: Antioxidant activity in high fat diet-induced hyperlipidemic mouse model assessed as increase in GSH-PX level at 13 mg/kg, po administered for last 30 days during 60 days of high fat diet feeding relative to control. The format is functional.
Assay [6] concerns Mus musculus. The assay is described as follows: Antioxidant activity in high fat diet-induced hyperlipidemic mouse model assessed as increase in SOD level at 13 mg/kg, po administered for last 30 days during 60 days of high fat diet feeding relative to control. In kind it is functional.
The subject of assay [7] is Mus musculus. The assay is described as follows: Hepatoprotective activity in high fat diet-induced hyperlipidemic mouse model assessed as reduction in ALT level at 13 mg/kg, po administered for last 30 days during 60 days of high fat diet feeding relative to control. The format is functional.
Assay [8] relates to Mus musculus. The assay is described as follows: Antihyperlipidemic activity in high fat diet-induced hyperlipidemic mouse model assessed as reduction in total cholesterol level at 13 mg/kg, po administered for last 30 days during 60 days of high fat diet feeding relative to control. In kind it is functional.
Assay [9] relates to Mus musculus. The assay is described as follows: Hepatoprotective activity in high fat diet-induced hyperlipidemic mouse model assessed as decrease in tissue hemorrhage at 13 mg/kg, po administered for last 30 days during 60 days of high fat diet feeding by H and E staining-based microscopic analysis. In kind it is functional, organism-based.
Assay [10] has as its system Mus musculus. Briefly: Hepatoprotective activity in high fat diet-induced hyperlipidemic mouse model assessed as reduction in AST level at 13 mg/kg, po administered for last 30 days during 60 days of high fat diet feeding relative to control. The format is functional.
The subject of assay [11] is Mus musculus. The assay is described as follows: Antioxidant activity in high fat diet-induced hyperlipidemic mouse model assessed as reduction in MDA level at 13 mg/kg, po administered for last 30 days during 60 days of high fat diet feeding relative to control. The format is functional.
Assay [12] deals with Mus musculus. Briefly: Antihyperlipidemic activity in high fat diet-induced hyperlipidemic mouse model assessed as reduction in serum triglyceride level at 13 mg/kg, po administered for last 30 days during 60 days of high fat diet feeding relative to control. The format is functional.
For assay [13], the system named is Mus musculus. The assay is described as follows: Antihyperlipidemic activity in high fat diet-induced hyperlipidemic mouse model assessed as LDL level at 13 mg/kg, po administered for last 30 days during 60 days of high fat diet feeding relative to control. The format is functional.
Assay [14] concerns Mus musculus. The assay is described as follows: In vivo anti-inflammatory activity in high fat diet-induced hyperlipidemic mouse model assessed as reduction in TNF-alpha level at 13 mg/kg, po administered for last 30 days during 60 days of high fat diet feeding relative to control. The format is functional.
The test system of assay [15] is Mus musculus. The assay is described as follows: Hepatoprotective activity in high fat diet-induced hyperlipidemic mouse model assessed as inhibition of lipid accumulation at 13 mg/kg, po administered for last 30 days during 60 days of high fat diet feeding by oil-red O staining-based microscopic analysis. The format is functional, organism-based.
The test system of assay [16] is Mus musculus. Briefly: In vivo anti-inflammatory activity in high fat diet-induced hyperlipidemic mouse model assessed as reduction in IL-6 level at 13 mg/kg, po administered for last 30 days during 60 days of high fat diet feeding relative to control. In kind it is functional.
For assay [17], the species on record is Mus musculus. The assay is described as follows: animal or person. The format is functional. The settings on record: po.
Description: Antihyperlipidemic activity in high fat diet-induced hyperlipidemic mouse model assessed as reduction in atherosclerosis index at 13 mg/kg, po administered for last 30 days during 60 days of high fat diet feeding relative to control
The subject of assay [18] is Mus musculus. The assay is described as follows: Hepatoprotective activity in high fat diet-induced hyperlipidemic mouse model assessed as decrease in inflammatory cell infiltration at 13 mg/kg, po administered for last 30 days during 60 days of high fat diet feeding by H and E staining-based microscopic analysis. In kind it is functional, organism-based.

Calls of active or inactive are those of the source. The rule behind the calls is not given here.

For the molecule `CCOC(=O)CCCCOc1ccc(-c2cc(=S)ss2)cc1`, the result in assay [1], in assay [2] and in assay [3] was Active.
For `COc1ccc(-c2cc(=S)ss2)cc1`, the result in assay [1] and in assay [3] was inactive.
With `CCOC(=O)C(C)(C)Oc1ccc(-c2cc(=S)ss2)cc1`, the result in [2] and in [3] was Active.
On to `CCOC(=O)C(CC)Oc1ccc(-c2cc(=S)ss2)cc1` (stereo not given), for which the result in assay [2] and in assay [3] was Active.
As to `CCOC(=O)CCCCCCOc1ccc(-c2cc(=S)ss2)cc1`, the outcome in assay [1], in assay [2] and in [3] was Active.
As to `CCOC(=O)C(C)Oc1ccc(-c2cc(=S)ss2)cc1` (stereo not given), the outcome in assay [2] and in [3] was Active.
Consider `CCOC(=O)COc1ccc(-c2cc(=S)ss2)cc1`, for which the result in assay [2] and in assay [3] was Active.
As to `CC(C)OC(=O)C(C)(C)Oc1ccc(C(=O)c2ccc(Cl)cc2)cc1` [FENOFIBRATE], the Activity in assay [4] was 19.4%; in assay [5] it was 9.9%; in assay [6], 10.9%. Further, the result in [1] was inactive. Further, the outcome in assay [2] and in [3] was Active.
As a reminder, the inhibition in vivo is the percentage by which the read-out fell short of the control. As to `CCOC(=O)CCCCCOc1ccc(-c2cc(=S)ss2)cc1`, the Activity in [4] was found to be 21.4%; in assay [5], 19.2%; in assay [6], 10.8%. The result in assay [1], in assay [2], in assay [9], in assay [15], in assay [3] and in assay [18] was Active. Further, the inhibition in vivo at 13 mg/kg is 8.2% in assay [7]; 12.5% in assay [8]; 31.5 to 39% in assay [10]; 10.1% in assay [11]; 29.4% in assay [12]; 30.7% in assay [13]. Further, the inhibition in vivo at 13 mg/kg in assay [14] is 31.8%; in [16], 18.4%; in [17] it was 40.1%.

The record behind these values is ChEMBL document CHEMBL4325841, “5-(4-Hydroxyphenyl)-3H-1,2-dithiole-3-thione-based fibrates as potential hypolipidemic and hepatoprotective agents” (2018).
